A value given as a limit tells only on which side of the number the result lay.

One may read the IC50 as the concentration needed to halve the response being measured.

Fatty acid synthase (Gallus gallus), sequence (P12276 whole entry, looked up): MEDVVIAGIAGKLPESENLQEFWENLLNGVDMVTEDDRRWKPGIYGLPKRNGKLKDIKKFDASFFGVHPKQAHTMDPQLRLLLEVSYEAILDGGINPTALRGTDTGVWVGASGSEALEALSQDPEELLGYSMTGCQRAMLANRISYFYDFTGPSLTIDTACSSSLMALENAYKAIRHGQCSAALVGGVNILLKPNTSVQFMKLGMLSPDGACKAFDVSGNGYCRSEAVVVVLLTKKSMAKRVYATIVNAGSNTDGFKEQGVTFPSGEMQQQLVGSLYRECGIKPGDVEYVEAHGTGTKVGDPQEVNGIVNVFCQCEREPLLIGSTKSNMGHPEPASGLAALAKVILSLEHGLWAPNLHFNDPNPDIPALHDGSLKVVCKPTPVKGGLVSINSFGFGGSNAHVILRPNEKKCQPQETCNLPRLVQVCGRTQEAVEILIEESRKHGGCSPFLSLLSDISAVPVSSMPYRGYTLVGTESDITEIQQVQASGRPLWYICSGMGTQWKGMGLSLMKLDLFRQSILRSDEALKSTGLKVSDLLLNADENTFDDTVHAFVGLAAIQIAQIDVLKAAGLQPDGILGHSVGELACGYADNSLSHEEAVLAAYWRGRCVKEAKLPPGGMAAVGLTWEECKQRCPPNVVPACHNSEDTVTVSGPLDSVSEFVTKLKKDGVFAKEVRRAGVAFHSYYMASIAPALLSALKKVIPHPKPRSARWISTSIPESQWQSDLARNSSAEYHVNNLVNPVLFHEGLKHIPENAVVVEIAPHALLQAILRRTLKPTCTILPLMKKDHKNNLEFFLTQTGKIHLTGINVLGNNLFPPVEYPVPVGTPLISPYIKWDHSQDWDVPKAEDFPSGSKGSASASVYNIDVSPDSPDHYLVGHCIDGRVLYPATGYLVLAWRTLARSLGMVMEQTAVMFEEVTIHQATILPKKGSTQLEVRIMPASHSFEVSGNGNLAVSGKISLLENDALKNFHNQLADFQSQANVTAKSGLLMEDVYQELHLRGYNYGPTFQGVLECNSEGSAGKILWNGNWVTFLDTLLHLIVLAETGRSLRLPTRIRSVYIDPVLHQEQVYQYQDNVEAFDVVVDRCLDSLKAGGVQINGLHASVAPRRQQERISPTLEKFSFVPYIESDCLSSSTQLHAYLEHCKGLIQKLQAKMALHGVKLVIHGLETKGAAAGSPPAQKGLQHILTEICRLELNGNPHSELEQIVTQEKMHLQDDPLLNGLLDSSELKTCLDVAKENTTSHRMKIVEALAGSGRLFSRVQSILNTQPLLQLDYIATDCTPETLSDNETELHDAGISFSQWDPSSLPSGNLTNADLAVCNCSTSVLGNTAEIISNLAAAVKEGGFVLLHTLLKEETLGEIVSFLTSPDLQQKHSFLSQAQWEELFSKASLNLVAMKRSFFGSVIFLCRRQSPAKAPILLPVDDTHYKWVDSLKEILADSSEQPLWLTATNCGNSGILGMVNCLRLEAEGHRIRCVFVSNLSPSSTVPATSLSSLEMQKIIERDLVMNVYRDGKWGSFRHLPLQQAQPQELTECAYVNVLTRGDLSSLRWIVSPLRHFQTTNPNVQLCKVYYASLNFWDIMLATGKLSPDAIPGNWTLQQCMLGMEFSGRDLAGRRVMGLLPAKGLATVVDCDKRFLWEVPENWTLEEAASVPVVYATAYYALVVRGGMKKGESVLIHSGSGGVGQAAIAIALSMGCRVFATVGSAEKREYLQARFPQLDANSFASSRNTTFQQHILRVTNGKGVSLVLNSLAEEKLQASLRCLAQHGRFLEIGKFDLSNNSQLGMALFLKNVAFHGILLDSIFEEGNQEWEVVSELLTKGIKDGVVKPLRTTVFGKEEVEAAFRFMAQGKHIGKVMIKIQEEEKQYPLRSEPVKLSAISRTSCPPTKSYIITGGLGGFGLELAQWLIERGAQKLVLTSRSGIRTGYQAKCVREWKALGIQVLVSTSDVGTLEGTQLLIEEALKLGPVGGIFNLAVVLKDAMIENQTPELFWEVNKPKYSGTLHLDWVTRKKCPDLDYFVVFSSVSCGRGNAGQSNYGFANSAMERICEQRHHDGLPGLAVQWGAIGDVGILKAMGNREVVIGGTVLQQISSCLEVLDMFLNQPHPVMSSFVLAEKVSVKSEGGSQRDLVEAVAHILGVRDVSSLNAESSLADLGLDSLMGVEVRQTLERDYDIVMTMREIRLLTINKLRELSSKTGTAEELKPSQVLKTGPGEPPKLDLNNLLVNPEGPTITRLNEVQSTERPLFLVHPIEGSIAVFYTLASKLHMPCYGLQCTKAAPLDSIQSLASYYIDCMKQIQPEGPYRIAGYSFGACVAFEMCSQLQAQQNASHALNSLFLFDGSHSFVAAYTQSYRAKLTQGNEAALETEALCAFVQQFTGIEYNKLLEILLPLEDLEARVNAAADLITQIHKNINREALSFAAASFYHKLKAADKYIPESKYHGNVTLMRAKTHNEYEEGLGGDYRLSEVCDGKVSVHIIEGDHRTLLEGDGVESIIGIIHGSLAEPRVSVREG

One test has as its target Fatty acid synthase (Gallus gallus) (UniProt P12276). Description: Inhibition of FAS.
With `O=c1c2cc(O)ccc2oc2cc(O)cc(O)c12`, the IC50 stood at 41 µM.

`CC(C)=CCc1c(O)cc2oc3cc(O)c(O)c(CC=C(C)C)c3c(=O)c2c1O` came in with an IC50 of 1.24 µM.

Compound `CC(C)=CCc1c(O)cc2oc3c(CC=C(C)C)c(O)c(O)c(CC=C(C)C)c3c(=O)c2c1O` [GARCINONE E] gave an IC50 of 3.3 µM.

`O=C(c1cc(O)cc(O)c1)c1c(O)cc(O)cc1O` came in with an IC50 of 8.59 µM.

In turn, `COc1c(O)cc2oc3cc4c(c(O)c3c(=O)c2c1CC=C(C)C)C=CC(C)(C)O4` [MANGOSTANIN] displayed an IC50 of 40.6 µM.

Compound `O=c1c2cc(O)c(O)cc2oc2cc(O)cc(O)c12` showed an IC50 of 17.9 µM.

As to `COc1cc(CCCO)cc2cc(-c3ccc4c(c3)OCO4)oc12` [EGONOL], the IC50 is 91.1 µM.

`COc1cc2oc3cc(O)c(OC)c(CC=C(C)C)c3c(=O)c2c(O)c1CC=C(C)C` came in with an IC50 of 24.8 µM.

As for `COc1c(O)cc2oc3cc(O)c(CC=C(C)C)c(O)c3c(=O)c2c1CC=C(C)C` [MANGOSTIN], the IC50 amounted to 5.54 µM.

For `O=C(O[C@@H]1Cc2c(O)cc(O)cc2O[C@@H]1c1cc(O)c(O)c(O)c1)c1cc(O)c(O)c(O)c1` [EPIGALOCATECHIN GALLATE], half-maximal inhibition (IC50) required 52 µM.

Compound `O=C(c1cccc(O)c1)c1cc(O)c(O)c(O)c1` registered an IC50 of 14.8 µM.

Compound `C[C@@H]1O[C@@H](O[C@@H]2C(=O)c3c(O)cc(O)cc3O[C@H]2c2cc(O)cc(O)c2)[C@H](O)[C@H](O)[C@H]1O` [NEOSMITILBIN] registered an IC50 of 49.2 µM.

The next test has the same target. In words: Inhibition of FAS at 1000 uM.
In turn, `Oc1cc(O)c2c(c1)O[C@@H](c1ccc(O)c(O)c1)[C@@H](O)C2` [(+)-EPICATECHIN] gave an IC50 of over 1000 µM.

Values taken from ChEMBL document CHEMBL1255179, “Fatty acid synthase inhibitors of phenolic constituents isolated from Garcinia mangostana” (Bioorg Med Chem Lett, 2010).
